Where two headings read alike, the source gives them in different places.
Molecular target: T1, JNK1 (Homo sapiens, UniProt P45983)
T1 construct: purchased Carna Biosciences
Assay: JNK1 biochemical assays (one or more of: time resolved fluorescence, Z'-LYTE Cascade, radioactive)

[1] = tested in one or more of the JNK1 biochemical assays, read-out: Act. Level (JNK1 biochemical assay IC50 activity level)
[2] = Table 2, JNK1 IC50 activity level, read-out: Act. Level

T1 sequence (P45983 whole entry): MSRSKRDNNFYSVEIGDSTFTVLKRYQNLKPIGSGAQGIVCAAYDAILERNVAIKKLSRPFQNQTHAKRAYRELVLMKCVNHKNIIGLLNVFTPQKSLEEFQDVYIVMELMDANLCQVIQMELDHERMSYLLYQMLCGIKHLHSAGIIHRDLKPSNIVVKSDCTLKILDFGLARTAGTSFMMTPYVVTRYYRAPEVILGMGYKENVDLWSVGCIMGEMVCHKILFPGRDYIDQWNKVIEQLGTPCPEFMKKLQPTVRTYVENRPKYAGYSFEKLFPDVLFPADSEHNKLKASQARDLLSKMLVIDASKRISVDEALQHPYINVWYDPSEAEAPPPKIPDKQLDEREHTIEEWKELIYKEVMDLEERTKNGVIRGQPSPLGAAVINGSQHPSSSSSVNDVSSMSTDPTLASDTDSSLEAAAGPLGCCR

| Structure (SMILES) | IC50 [1] [nM] | IC50 [2] [nM] |
| --- | --- | --- |
| CCO[C@H]1CC[C@H](Nc2ncc(C(N)=O)c(N[C@@H]3CC[C@@H](C)[C@H](O)C3)n2)CC1 [Example A-172, 2-((1r,4R)-4-ethoxycyclohexylamino)-4-((1R,3R,4R)-3-hydroxy-4-methylcyclohexylamino)pyrimidine-5-carboxamide] | < 200 | – |
| C[C@@H]1CC[C@@H](Nc2nc(N[C@H]3CC[C@H](OC(F)F)CC3)ncc2C(N)=O)C[C@H]1O [Example A-173, 2-((1r,4R)-4-(difluoromethoxy)cyclohexylamino)-4-((1R,3R,4R)-3-hydroxy-4-methylcyclohexylamino)pyrimidine-5-carboxamide] | < 200 | – |
| NC(=O)c1cnc(N[C@H]2CC[C@H](OCC(F)(F)F)CC2)nc1NC1CCC1 [Example A-174, 4-(cyclobutylamino)-2-((1r,4r)-4-(2,2,2-trifluoroethoxy)cyclohexylamino)pyrimidine-5-carboxamide] | < 200 | – |
| NC(=O)c1cnc(N[C@H]2CC[C@H](O)CC2)nc1NC1CC1 [Example A-175, 4-(cyclopropylamino)-2-((1r,4r)-4-hydroxycyclohexylamino)pyrimidine-5-carboxamide] | < 200 | – |
| NC(=O)c1cnc(N[C@H]2CC[C@H](O)CC2)nc1NC1CCC1 [Example A-176, 4-(cyclobutylamino)-2-((1r,4r)-4-hydroxycyclohexylamino)pyrimidine-5-carboxamide] | < 200 | – |
| C[C@]1(O)CCC[C@@H](Nc2nc(N[C@H]3CC[C@H](O)CC3)ncc2C(N)=O)C1 [Example A-177, 4-((1R,3S)-3-hydroxy-3-methylcyclohexylamino)-2-((1r,4R)-4-hydroxycyclohexylamino)pyrimidine-5-carboxamide] | < 200 | – |
| C[C@@H]1CC[C@@H](Nc2nc(N[C@H]3CC[C@H](OCC(F)(F)F)CC3)ncc2C(N)=O)C[C@H]1O [Example A-178, 4-((1R,3R,4R)-3-hydroxy-4-methylcyclohexylamino)-2-((1r,4R)-4-(2,2,2-trifluoroethoxy)cyclohexylamino)pyrimidine-5-carboxamide] | < 200 | – |
| C[C@@H]1CC[C@@H](Nc2nc(N[C@H]3CC[C@H](O)CC3)ncc2C(N)=O)C[C@H]1O [Example A-179, 4-((1R,3R,4R)-3-hydroxy-4-methylcyclohexylamino)-2-((1r,4R)-4-hydroxycyclohexylamino)pyrimidine-5-carboxamide] | < 200 | – |
| CC1(Nc2ncc(C(N)=O)c(N[C@@H]3CCCC[C@H](O)C3)n2)CCOCC1 [Example A-181, 4-((1R,3S)-3-hydroxycycloheptylamino)-2-(4-methyltetrahydro-2H-pyran-4-ylamino)pyrimidine-5-carboxamide] | < 200 | – |
| CC(C)(C)Nc1ncc(C(N)=O)c(N[C@@H]2CCCC[C@H](O)C2)n1 [Example A-182, 2-(tert-butylamino)-4-((1R,3S)-3-hydroxycycloheptylamino)pyrimidine-5-carboxamide] | < 200 | – |
| CO[C@H]1CC[C@H](Nc2ncc(C(N)=O)c(N[C@@H]3CCCC[C@](C)(O)C3)n2)CC1 [Example A-183, 4-((1R,3S)-3-hydroxy-3-methylcycloheptylamino)-2-((1r,4R)-4-methoxycyclohexylamino)pyrimidine-5-carboxamide] | < 200 | – |
| CO[C@H]1CC[C@H](Nc2ncc(C(N)=O)c(N[C@H]3CCCC[C@](C)(O)C3)n2)CC1 [Example A-184, 4-((1S,3S)-3-hydroxy-3-methylcycloheptylamino)-2-((1r,4S)-4-methoxycyclohexylamino)pyrimidine-5-carboxamide] | 200 to 800 | – |
| CO[C@H]1CC[C@H](Nc2ncc(C(N)=O)c(N[C@H]3CCCC[C@@](C)(O)C3)n2)CC1 [Example A-185, 4-((1S,3R)-3-hydroxy-3-methylcycloheptylamino)-2-((1r,4S)-4-methoxycyclohexylamino)pyrimidine-5-carboxamide] | < 200 | – |
| CO[C@H]1CC[C@H](Nc2ncc(C(N)=O)c(N[C@@H]3CCCC[C@@](C)(O)C3)n2)CC1 [Example A-186, 4-((1R,3R)-3-hydroxy-3-methylcycloheptylamino)-2-((1r,4R)-4-methoxycyclohexylamino)pyrimidine-5-carboxamide] | < 200 | – |
| C[C@]1(O)CCC[C@@H](Nc2nc(NC3CCC(F)(F)CC3)ncc2C(N)=O)C1 [Example A-187, 2-(4,4-difluorocyclohexylamino)-4-((1R,3S)-3-hydroxy-3-methylcyclohexylamino)pyrimidine-5-carboxamide] | < 200 | – |
| NC(=O)c1cnc(N[C@H]2CC[C@H](OCC(F)(F)F)CC2)nc1N[C@@H]1CCCOC1 [Example A-188, 4-((R)-tetrahydro-2H-pyran-3-ylamino)-2-((1r,4R)-4-(2,2,2-trifluoroethoxy)cyclohexylamino)pyrimidine-5-carboxamide] | < 200 | – |
| CC[C@@H](C)Nc1nc(N[C@H]2CC[C@H](O)CC2)ncc1C(N)=O [Example A-189, 4-(sec-butylamino)-2-((1r,4R)-4-hydroxycyclohexylamino)pyrimidine-5-carboxamide] | < 200 | – |
| CO[C@H]1CC[C@H](Nc2ncc(C(N)=O)c(NC3CCCC3)n2)CC1 [Example A-190, 4-(cyclopentylamino)-2-((1r,4r)-4-methoxycyclohexylamino)pyrimidine-5-carboxamide] | < 200 | – |
| CC(C)Nc1nc(N[C@H]2CC[C@H](OC(F)F)CC2)ncc1C(N)=O [Example A-191, 2-((1r,4r)-4-(difluoromethoxy)cyclohexylamino)-4-(isopropylamino)pyrimidine-5-carboxamide] | < 200 | – |

| Structure (SMILES) | IC50 [1] [nM] | IC50 [2] [nM] |
| --- | --- | --- |
| NC(=O)c1cnc(NC2CCC(F)(F)CC2)nc1N[C@@H]1CCCC[C@H](O)C1 [Example A-192, 2-(4,4-difluorocyclohexylamino)-4-((1R,3S)-3-hydroxycycloheptylamino)pyrimidine-5-carboxamide] | < 200 | – |
| NC(=O)c1cnc(N[C@H]2CC[C@H](O)CC2)nc1N[C@@H]1CCCOC1 [Example A-193, 2-((1r,4R)-4-hydroxycyclohexylamino)-4-((R)-tetrahydro-2H-pyran-3-ylamino)pyrimidine-5-carboxamide] | < 200 | – |
| CN(C)C(=O)[C@H]1CC[C@H](Nc2ncc(C(N)=O)c(N[C@@H]3CCCOC3)n2)CC1 [Example A-194, 2-((1r,4R)-4-(dimethylcarbamoyl)cyclohexylamino)-4-((R)-tetrahydro-2H-pyran-3-ylamino)pyrimidine-5-carboxamide] | < 200 | – |
| CC[C@H](C)Nc1nc(N[C@H]2CC[C@H](O)CC2)ncc1C(N)=O [Example A-195, 4-(sec-butylamino)-2-((1r,4S)-4-hydroxycyclohexylamino)pyrimidine-5-carboxamide] | < 200 | – |
| CCO[C@H]1CC[C@H](Nc2ncc(C(N)=O)c(NC3CCC3)n2)CC1 [Example A-197, 4-(cyclobutylamino)-2-((1r,4r)-4-ethoxycyclohexylamino)pyrimidine-5-carboxamide] | < 200 | – |
| C[C@@H]1CC[C@@H](Nc2nc(NC3CCC(F)(F)CC3)ncc2C(N)=O)C[C@H]1O [Example A-198, 2-(4,4-difluorocyclohexylamino)-4-((1R,3R,4R)-3-hydroxy-4-methylcyclohexylamino)pyrimidine-5-carboxamide] | < 200 | – |
| CNC(=O)[C@H]1CC[C@H](Nc2ncc(C(N)=O)c(NC(C)C)n2)CC1 [Example A-199, 4-(isopropylamino)-2-((1r,4r)-4-(methylcarbamoyl)cyclohexylamino)pyrimidine-5-carboxamide] | < 200 | – |
| CO[C@H]1CCC[C@H](Nc2ncc(C(N)=O)c(N[C@@H]3CCC[C@H](O)C3)n2)CC1 [Example A-200, 4-((1R,3S)-3-hydroxycyclohexylamino)-2-((1S,4S)-4-methoxycycloheptylamino)pyrimidine-5-carboxamide] | < 200 | – |
| CO[C@@H]1CCC[C@@H](Nc2ncc(C(N)=O)c(N[C@@H]3CCC[C@H](O)C3)n2)CC1 [Example A-201, 4-((1R,3S)-3-hydroxycyclohexylamino)-2-((1R,4R)-4-methoxycycloheptylamino)pyrimidine-5-carboxamide] | < 200 | – |
| CCOc1ccc(Nc2ncc(C(N)=O)c(N[C@H]3CCC[C@@H]3O)n2)cc1 [Example B-1, 2-(4-ethoxyphenylamino)-4-((1S,2S)-2-hydroxycyclopentylamino)pyrimidine-5-carboxamide] | – | < 200 |
| NC(=O)c1cnc(NC2CCOCC2)nc1Nc1ccc2ncccc2c1 [Example B-2, 4-(quinolin-6-ylamino)-2-(tetrahydro-2H-pyran-4-ylamino)pyrimidine-5-carboxamide] | – | < 200 |
| NC(=O)c1cnc(NC2CCOCC2)nc1Nc1ccc2cn[nH]c2c1 [Example B-3, 4-(1H-indazol-6-ylamino)-2-(tetrahydro-2H-pyran-4-ylamino)pyrimidine-5-carboxamide] | – | < 200 |
| CS(=O)(=O)N[C@H]1CC[C@H](Nc2ncc(C(N)=O)c(Nc3ccccc3)n2)CC1 [Example B-5, 2-((1r,4r)-4-(methylsulfonamido)cyclohexylamino)-4-(phenylamino)pyrimidine-5-carboxamide] | – | < 200 |
| CC(=O)N[C@H]1CC[C@H](Nc2ncc(C(N)=O)c(Nc3ccccc3)n2)CC1 [Example B-6, 2-((1r,4r)-4-acetamidocyclohexylamino)-4-(phenylamino)pyrimidine-5-carboxamide] | – | < 200 |
| NC(=O)c1cnc(N[C@H]2CC[C@H](N)CC2)nc1Nc1ccccc1 [Example B-7, 2-((1r,4r)-4-aminocyclohexylamino)-4-(phenylamino)pyrimidine-5-carboxamide] | – | < 200 |
| CNC(=O)[C@H]1CC[C@H](Nc2ncc(C(N)=O)c(Nc3ccccc3)n2)CC1 [Example B-8, 2-((1r,4r)-4-(methylcarbamoyl)cyclohexylamino)-4-(phenylamino)pyrimidine-5-carboxamide] | – | < 200 |
| NC(=O)c1cnc(NC2CCNCC2)nc1Nc1ccccc1 [Example B-9, 4-(phenylamino)-2-(piperidin-4-ylamino)pyrimidine-5-carboxamide] | – | 1000 to 10000 |
| CC(=O)N1CCC(Nc2ncc(C(N)=O)c(Nc3ccccc3)n2)CC1 [Example B-10, 2-(1-acetylpiperidin-4-ylamino)-4-(phenylamino)pyrimidine-5-carboxamide] | – | 1000 to 10000 |

Reference: US12129237B2, “Substituted diaminocarboxamide and diaminocarbonitrile pyrimidines, compositions thereof, and methods of treatment therewith” (SIGNAL PHARMACEUTICALS, LLC, priority 2011, dated 2024)
